Measured values taken from US7235576B1, “Omega-carboxyaryl substituted diphenyl ureas as raf kinase inhibitors” (Bayer Pharmaceuticals Corporation, priority 2001, dated 2007).

| melting point [°C] | Compound |
| --- | --- |
| 228 to 230 | COC(=O)c1ccc(Oc2ccc(NC(=O)Nc3ccc(Cl)c(C(F)(F)F)c3)cc2)cn1 [Entry 55, N-(4-chloro-3-(trifluoromethyl)phenyl)-N′-(4-(2-(methoxycarbonyl)-5-pyridyloxy)phenyl)urea] |
| 125 to 130 | CNC(=O)c1cc(Oc2ccc(NC(=O)Nc3ccc(Oc4ccnc(C(=O)NC)c4)cc3)cc2)ccn1 [Entry 103, bis(4-(2-(N-methylcarbamoyl)-4-pyridyloxy)phenyl)urea] |
